According to US20080188513A1, “1-(2-Methylpropyl)-1H-Imidazo[4,5-C](1,5]Naphthyridin-4-Amine Ethanesulfonate and 1-(2-Methylpropyl)-1H-Imidazo[4,5-C](1,5]Naphthyridin-4-Amine Methanesulfonate” (taked Pharmaceutical Company Limited, priority 2004, published 2008):
In brackets after ≈: the same amount, converted by molar mass. Several values for one entry are separate records, joined by “and”; a condition that tells them apart may be missing. Equal values may be shown once.

Legend:
[1] = Aqueous solubility of the free base measured potentiometrically as a function of pH (p-SOL microtitrator); type: physicochemical; settings: saline or isotonic, thermodynamic from solid, 0.15 M aqueous potassium chloride, potentiometric titration, read-out: intrinsic solubility (So)
Procedure: (§1) The aqueous solubility of 1-(2-methylpropyl)-1H-imidazo[4,5-c][1,5]naphthyridin-4-amine free base was measured potentiometrically as a function of pH. […] The titration was carried out on a sample approximately 3 mg in size. […] The pKa of 1-(2-methylpropyl)-1H-imidazo[4,5-c][1,5]naphthyridin-4-amine, determined potentiometrically in a separate experiment to be 6.1, was used in the calculation to determine the intrinsic solubility. The curve showing solubility as a function of pH for 1-(2-methylpropyl)-1H-imidazo[4,5-c][1,5]naphthyridin-4-amine free base is shown in FIG. 5.

[2] = pKa determined potentiometrically; type: physicochemical; settings: determined potentiometrically in a separate experiment
Procedure: as §1

[3] = In-situ salt selection test carried out in water; type: physicochemical; settings: for aqueous solubility (in words): summary statement; for Appearance: appearance of the resulting solution after 24 hours at 25° C., in water; for solubility at 24 h: water (salt formed in situ with aqueous acid), thermodynamic from solid
Procedure: Aqueous solutions (0.5 molar (M)) of ethanesulfonic acid, methanesulfonic acid, and hydrochloric acid were prepared. For ethanesulfonic acid and methanesulfonic acid, the neat acid (0.05 mol) was dissolved in water (100 mL) to prepare the solutions. Hydrochloric acid (1 normal (N)) was diluted with water to prepare 0.5 M hydrochloric acid. The free base of 1-(2-methylpropyl)-1H-imidazo[4,5-c][1,5]naphthyridin-4-amine in an amount indicated in the following Table 1 was added to a vial, and the acidic solution from the following Table 1 (1.05 equivalent) was added. The vial was capped and shaken at 25° C. in a water bath for 24 hours. The resulting salt mixture or solution was filtered through Whatman No. 5 filter paper, and 1 mL of the filtrate was diluted with methanol (10 mL) to provide a specimen for analysis. The solubility of the salt in water was determined for each specimen by analyzing for soluble salt content by reverse phase high performance liquid chromatography (HPLC) using the following method.
A diluent was prepared by dissolving phosphoric acid (1 mL of 85%) in HPLC grade water (1 L). The resulting solution was mixed in a 60:40 ratio with acetonitrile. Each specimen was diluted to a volume of 50.0 mL with the diluent to provide a sample having a concentration of less than or equal to (≦) 50 micrograms per milliliter (μg/mL).
An external standard was prepared by dissolving 1-(2-methylpropyl)-1H-imidazo[4,5-c][1,5]naphthyridin-4-amine free base (25 mg) in methanol (30 mL) with the aid of sonication and then diluting to a volume of 50.0 mL with methanol to provide a stock solution. Diluent was added to 5 mL of the stock solution to a volume of 50.0 mL.
A Waters LC Module 1 HPLC system equipped with an autosampler, a reproducible injector, a UV detector (326 nm wavelength), and Turbochrom data acquisition software was used with a ZORBAX Bonus-RP C14, 15 cm×4.6 mm column with 5 μm packing. The mobile phase was prepared by dissolving 1-octanesulfonate, sodium salt (2.00 g) and phosphoric acid (1 mL of 85%) in HPLC grade water (1 L) and mixing the resulting solution in a 65:35 ratio with HPLC grade acetonitrile. A flow rate of 1.0 mL/min was used.
The column was equilibrated with the mobile phase, and the system was tested using six 20 μL injections of the external standard to ensure that the relative standard deviation for the peak areas was less than or equal to (≦) 1.5%. An injection of each sample (20 μL) was tested in comparison to a standard. The concentration, in percentage, of 1-(2-methylpropyl)-1H-imidazo[4,5-c][1,5]naphthyridin-4-amine in solution was then calculated using the following operation: {[peak area of the sample/weight of the sample (mg)]/[peak area of the standard/weight of the standard (mg)]average}×100. The solubility of the salt, presented in the following Table 1, can then be calculated using the equations presented by Tong, W. Q., and Whitesell, G, Pharmaceutical Development and Technology, 3(2), pp. 215-223 (1998).

cytokine biosynthesis = settings: U.S. Pat. No. 6,194,425; cited from earlier work
[4] = In-situ salt selection test carried out in water with a cosolvent; type: physicochemical; settings: 25 °C, aqueous with cosolvent or surfactant or cyclodextrin, thermodynamic from solid, final acid concentration 0.05 M
[5] = tested on: interferon (α) and tumor necrosis factor (α) secreted by peripheral blood mononuclear cells (PBMC); assay: Cytokine induction in human cells (PBMC); type: cell-based; settings: 18 to 24 hours, 30-0.014 μM
From the text: An in vitro human blood cell system is used to assess cytokine induction. Activity is based on the measurement of interferon (α) and tumor necrosis factor (α) (IFN and TNF, respectively) secreted into culture media as described by Testerman et al. in “Cytokine Induction by the Immunomodulators Imiquimod and S-27609,” Journal of Leukocyte Biology, 58, 365-372 (September, 1995).
Whole blood from healthy human donors is collected by venipuncture into EDTA vacutainer tubes. Peripheral blood mononuclear cells (PBMC) are separated from whole blood by density gradient centrifugation using HISTOPAQUE-1077. […]
Following incubation the plates are centrifuged for 10 minutes at 1000 revolutions per minute (rpm) (approximately 200×g) at 4° C. […] The samples are analyzed for interferon (α) by ELISA and for tumor necrosis factor (α) by ELISA or IGEN Assay.
Interferon (α) concentration is determined by ELISA using a Human Multi-Species kit from PBL Biomedical Laboratories, New Brunswick, N.J. Results are expressed in pg/mL.
Tumor necrosis factor (α) (TNF) concentration is determined using ELISA kits available from Biosource International, Camarillo, Calif. Alternately, the TNF concentration can be determined by ORIGEN M-Series Immunoassay and read on an IGEN M-8 analyzer from IGEN International, Gaithersburg, Md. […]

[6] = Physical and chemical stability in solid form; type: physicochemical
[7] = salt formed in situ in water, shaken at 25° C. for 24 hours, filtrate by HPLC
[8] = 5% (w/w) diethylene glycol monoethyl ether in water
[9] = 5% (w/w) propylene glycol in water

SMILES | melting point | solubility [1] | pKa [2] | aqueous solubility (in words) [3] | ability to induce cytokine biosynthesis (cytokine biosynthesis) | Appearance [3] | solubility at 24 h [3, 7] | solubility at 24 h [4, 8] | solubility at 24 h [4, 9] | induction of interferon α and/or tumor necrosis factor α production [5] | physical and chemical stability in solid form [6] | solubility [3, 7]
CC(C)Cn1cnc2c(N)nc3cccnc3c21.CCS(=O)(=O)O.O (hydrate or solvate) | 221.5 to 223.4 °C and 220 to 221 °C | – | – | – | – | – | – | – | – | – | – | –
CC(C)Cn1cnc2c(N)nc3cccnc3c21 [1-(2-methylpropyl)-1H-imidazo[4,5-c][1,5]naphthyridin-4-amine] | – | 0.003 mg/mL (≈ 12.4 µM) | 6.1 | particularly low aqueous solubility | ability to induce cytokine biosynthesis | – | – | – | – | – | – | –
CC(C)Cn1cnc2c(N)nc3cccnc3c21.CCS(=O)(=O)O [Ethanesulfonic, 1-(2-methylpropyl)-1H-imidazo[4,5-c][1,5]naphthyridin-4-amine ethanesulfonate] | – | – | – | good aqueous solubility | – | Clear | 24.4 mg/mL | 10.5 mg/mL | > 10.1 mg/mL | inducing the production of interferon α and/or tumor necrosis factor α | good physical and chemical stability in solid form | –
CC(C)Cn1cnc2c(N)nc3cccnc3c21.Cl [Hydrochloric, hydrochloride salt of 1-(2-methylpropyl)-1H-imidazo[4,5-c][1,5]naphthyridin-4-amine, reference compound] | – | – | – | low aqueous solubility | – | Milky, | – | – | – | – | – | 0.39 mg/mL
CC(C)Cn1cnc2c(N)nc3cccnc3c21.CS(=O)(=O)O [Methanesulfonic, 1-(2-methylpropyl)-1H-imidazo[4,5-c][1,5]naphthyridin-4-amine methanesulfonate] | – | – | – | good aqueous solubility | – | Translucent | 15.2 mg/mL | 10.5 mg/mL | 10.3 mg/mL | – | good physical and chemical stability in solid form | –
